The values below come from article PMC12040169 (PLOS Biology, 2025).

The structures appear in SMILES notation.

The nature of this series: in vitro. The following applies: human, hela cells, % viability.
For `Cc1ccc(Cl)cc1-n1cc(-c2ccc(F)cc2F)nn1` [CBK112995], the viability at 28.5 h, 10 µM was determined as 89.2%.

Take `O=C(O)c1cccc(-n2cc(-c3ccc(F)cc3F)nn2)c1` [CBK112998]: the viability at 28.5 h, 10 µM was 95.9%.

For the compound `COc1ccc(-c2cn(-c3cc(Cl)ccc3C)nn2)cc1` [CBK113023], the viability at 28.5 h, 10 µM turned out to be 58.6%.

`COc1ccc(-c2cn(-c3ccc4c(c3)CCO4)nn2)cc1` [CBK113027]: the viability at 28.5 h, 10 µM is 88.5%.

Consider `CC(C)(C)c1ccc(-n2cc(-c3ccc(Cl)cc3)nn2)cc1` [CBK113031], for which the viability at 28.5 h, 10 µM stood at 102%.

Consider `FC(F)(F)c1cccc(-n2cc(-c3cccnc3)nn2)c1` [CBK113053], for which the viability at 28.5 h, 10 µM was found to be 86%.

Consider `CN(C)Cc1ccccc1-n1cc(-c2cccnc2)nn1` [CBK113064], for which the viability at 28.5 h, 10 µM came to 92.5%.

For the compound `FC(F)(F)Oc1ccc(-n2cc(-c3ccsc3)nn2)cc1` [CBK113096], the viability at 28.5 h, 10 µM was 92.7%.

Regarding `O=S1(=O)CCN(Cc2cn(-c3ccccc3)nn2)CC1` [CBK113103], the viability at 28.5 h, 10 µM stood at 88.9%.

As to `O=S1(=O)CCN(Cc2cn(-c3ccc(-c4ccccc4)cc3)nn2)CC1` [CBK113105], the viability at 28.5 h, 10 µM was 95.4%.

Consider `COc1ccc(-n2cc(-c3ccncc3)nn2)cc1OC` [CBK113106], for which the viability at 28.5 h, 10 µM came to 109%.

In the case of `COc1ccc(-n2cc(-c3ccc(F)cc3)nn2)cc1` [CBK113111], the viability at 28.5 h, 10 µM amounted to 102%.

Turning to `CC(C)(C)c1ccc(-n2cc(-c3ccc(F)cc3)nn2)cc1` [CBK113112], the viability at 28.5 h, 10 µM is 103%.

Turning to `Fc1ccc(-c2cn(-c3ccc4c(c3)CCO4)nn2)cc1` [CBK113132], the viability at 28.5 h, 10 µM amounted to 97%.

With `COc1ccc(-n2cc(-c3ccccn3)nn2)cc1OC` [CBK113133], the viability at 28.5 h, 10 µM came out at 103%.

Take `CCc1ccc(-n2cc(-c3ccccn3)nn2)cc1` [CBK113137]: the viability at 28.5 h, 10 µM is 106%.

Take `Fc1cc(Br)ccc1-c1cn(-c2ccc3[nH]ccc3c2)nn1` [CBK113146]: the viability at 28.5 h, 10 µM came to 91.2%.

As for `Fc1cc(Br)ccc1-c1cn(-c2ccccc2)nn1` [CBK113148], the viability at 28.5 h, 10 µM stood at 80.7%.

As to `CCOC(=O)c1cccc(-n2cc(-c3ccc(Br)cc3F)nn2)c1` [CBK113153], the viability at 28.5 h, 10 µM came out at 92.3%.

As for `Cc1cc(C)n(S(=O)(=O)c2cc(C(=O)O)c(Cl)cc2Cl)n1` [CBK113170], the viability at 28.5 h, 10 µM was 86.3%.

For `NS(=O)(=O)c1ccccc1Cl` [CBK113172], the viability at 28.5 h, 10 µM is 98.1%.

Consider `CC(C)(C)c1ccc(C(=O)Nc2nsc(-c3ccc(Cl)cc3)n2)cc1` [CBK113176], for which the viability at 28.5 h, 10 µM came to 89.6%.

Consider `NS(=O)(=O)c1cc(C(=O)O)ccc1F` [CBK113180], for which the viability at 28.5 h, 10 µM is 81.1%.

As for `COC(=O)c1cc(S(N)(=O)=O)c(C)o1` [CBK113185], the viability at 28.5 h, 10 µM was 104%.

`O=C1c2ccccc2CN1c1ccccc1` [CBK113189]: the viability at 28.5 h, 10 µM worked out at 95.9%.

For the compound `O=C1c2ccccc2CN1c1cccc2ccccc12` [CBK113190], the viability at 28.5 h, 10 µM came to 85.3%.

For the compound `CCOC(=O)Cn1nc(C)c(Cc2c(Cl)cccc2Cl)c1CC` [CBK113223], the viability at 28.5 h, 10 µM is 85%.

For `O=C(O)c1cc(S(=O)(=O)Nc2ccc(O)cc2)c(Cl)cc1Cl` [CBK113231], the viability at 28.5 h, 10 µM was determined as 86.8%.

On to `O=C(Nc1nsc(-c2ccccc2)n1)c1ccc(F)cc1` [CBK113232], for which the viability at 28.5 h, 10 µM amounted to 87.8%.

With `O=C1c2ccccc2CN1c1ccc(OC(F)(F)F)cc1` [CBK113237], the viability at 28.5 h, 10 µM was 91.3%.

Consider `Cc1ccc(N2C(=O)c3ccccc3C2Nc2ccccc2)nc1` (stereo not shown) [CBK113238], for which the viability at 28.5 h, 10 µM amounted to 101%.

Regarding `Cc1ccc(N2C(=O)c3ccccc3C2=O)cc1` [CBK113243], the viability at 28.5 h, 10 µM came out at 95.7%.

Take `CN1CCN(CCCCC2(C)SC(NC3CCCCCC3)=NC2=O)CC1` (stereo not shown) [CBK113259]: the viability at 28.5 h, 10 µM was determined as 93.3%.

`Cc1c(Cc2c(Cl)cccc2Cl)c(=O)n(C)n1C` [CBK113274]: the viability at 28.5 h, 10 µM came out at 97.2%.

In the case of `CCCc1n[nH]c(Cc2c(Cl)cccc2Cl)c1C(=O)OCC` [CBK113275], the viability at 28.5 h, 10 µM worked out at 88.9%.

On to `CC(C)Nc1nc2ccccc2nc1OC1CCN(C)C1` (stereo not shown) [CBK113283], for which the viability at 28.5 h, 10 µM worked out at 81.1%.

Regarding `FC(F)(F)c1ccnc(OCCN2CCOCC2)c1` [CBK113286], the viability at 28.5 h, 10 µM amounted to 97.1%.

`FC(F)(F)c1cccc(OCCN2CCOCC2)n1` [CBK113289]: the viability at 28.5 h, 10 µM came to 105%.

Turning to `FC(F)(F)c1cccc(OC2CCCNC2)n1` (stereo not shown) [CBK113290], the viability at 28.5 h, 10 µM was found to be 93.2%.

Regarding `FC(F)(F)c1ccnc(OCCN2CCNCC2)n1` [CBK113297], the viability at 28.5 h, 10 µM was determined as 97.5%.

As for `FC(F)(F)c1nc2ccccc2nc1OCCN1CCNCC1` [CBK113302], the viability at 28.5 h, 10 µM is 99.4%.

As for `CC(C)Oc1cncc(Cl)n1` [CBK113321], the viability at 28.5 h, 10 µM stood at 106%.

Turning to `c1ccc2oc(-c3cc4ccccc4o3)cc2c1` [CBK113363], the viability at 28.5 h, 10 µM worked out at 113%.

Turning to `Clc1nc2ccccc2nc1OCCOc1ccccc1` [CBK113367], the viability at 28.5 h, 10 µM worked out at 108%.

For `CC(C)Nc1nc2ccccc2nc1OCCCN(C)C` [CBK113416], the viability at 28.5 h, 10 µM came out at 108%.

`CC(C)Nc1nc2cc(Cl)c(Cl)cc2nc1OCCN(C)C` [CBK113419]: the viability at 28.5 h, 10 µM was determined as 103%.

For the compound `c1ncc(N2CCCC2)nc1OCCN1CCOCC1` [CBK113430], the viability at 28.5 h, 10 µM amounted to 89.1%.

As for `Clc1cc2nc(OC3CCCNC3)c(N3CCCC3)nc2cc1Cl` (stereo not shown) [CBK113454], the viability at 28.5 h, 10 µM was 108%.

For `FC(F)(F)c1cccnc1OCCN1CCOCC1` [CBK113456], the viability at 28.5 h, 10 µM is 101%.

For `CN1CCN(C)C(COc2ncccc2C(F)(F)F)C1` (stereo not shown) [CBK113458], the viability at 28.5 h, 10 µM turned out to be 90.5%.

Take `CCN(CC)CCCOC1(C)SC(NC2CCCCCC2)=NC1=O` (stereo not shown) [CBK113510]: the viability at 28.5 h, 10 µM came out at 86.5%.

Regarding `Fc1ccc(OCCCCCN2CCC3(CC2)OCCc2c3[nH]c3ccccc23)cc1` [CBK113516T], the viability at 28.5 h, 10 µM came out at 2.48%.

As to `CCCc1n[nH]c(-c2cccc(C)c2C)c1C(=O)OCC` [CBK113545], the viability at 28.5 h, 10 µM stood at 106%.

As for `CCCc1n[nH]c(-c2c(F)cccc2F)c1C(=O)OCC` [CBK113546], the viability at 28.5 h, 10 µM was found to be 92.7%.

For `COc1cccc(CCOc2cncc(Cl)n2)c1` [CBK113556], the viability at 28.5 h, 10 µM worked out at 87.3%.

With `CS(=O)(=O)c1ccc(Nc2ncnc(N3CCC(Sc4ccccc4)CC3)c2[N+](=O)[O-])cc1` [CBK113567], the viability at 28.5 h, 10 µM came to 92.8%.

Take `OC1CCCn2c1nc1cc(Cl)ccc12` (stereo not shown) [CBK113625]: the viability at 28.5 h, 10 µM came to 72.4%.

`COc1ccc(C)cc1S(=O)(=O)N1CCc2c(CN3CCN(C)CC3)cccc21` [CBK113628T]: the viability at 28.5 h, 10 µM stood at 115%.

`COc1ccc(C)cc1S(=O)(=O)N1CCc2c(CN3CCOCC3)cccc21` [CBK113630T]: the viability at 28.5 h, 10 µM came out at 86.8%.

Take `N#Cc1ccc(-c2cnc(N)c(-c3ccccc3Cl)n2)cc1` [CBK113660]: the viability at 28.5 h, 10 µM came out at 88.5%.

Take `COc1ccc(N2Cc3ccccc3C2=O)cc1OC` [CBK113666]: the viability at 28.5 h, 10 µM worked out at 95.5%.

`Cn1ncc2c1C(=O)NC1c3ccccc3C(=O)N21` (stereo not shown) [CBK113668]: the viability at 28.5 h, 10 µM was 94.3%.

For `O=c1sn(-c2ccccc2C(F)(F)F)c(=O)n1CC1CC1` [CBK113675], the viability at 28.5 h, 10 µM was 82.8%.

Take `Cc1n[nH]cc1-c1nsc(Nc2ccccc2)n1` [CBK113680]: the viability at 28.5 h, 10 µM was 92.2%.

`O=C(O)c1cc(S(=O)(=O)Nc2ccc(F)cc2)c(Cl)cc1Cl` [CBK113685]: the viability at 28.5 h, 10 µM stood at 84.9%.

As to `Cn1c(C(=O)O)ccc1S(=O)(=O)NCc1ccco1` [CBK113686], the viability at 28.5 h, 10 µM was found to be 105%.

Take `Cc1cccc(NC(=O)c2ccccc2NS(=O)(=O)c2ccc(F)c(F)c2)c1` [CBK113810]: the viability at 28.5 h, 10 µM worked out at 115%.

On to `O=C(NCc1ccccc1)c1ccccc1NS(=O)(=O)c1ccccc1F` [CBK113881], for which the viability at 28.5 h, 10 µM was 106%.

On to `CCCN(CCC)C(=O)c1ccc(-n2nc(C(=O)OCC)c(Br)c2C)cc1` [CBK114363], for which the viability at 28.5 h, 10 µM worked out at 109%.

For `Cc1nnc(-c2cc(CC(C)C)n(-c3cccc(C(=O)N4CC=CCC4)c3)n2)o1` [CBK114630], the viability at 28.5 h, 10 µM was determined as 91.6%.

Consider `Cc1nnc(-c2cc(CCC(C)C)n(-c3cccc(C(=O)N4CCCCC4)c3)n2)o1` [CBK114689], for which the viability at 28.5 h, 10 µM is 95.4%.

As to `Cc1csc(Sc2nccnc2NC(C)C)n1` [CBK115203], the viability at 28.5 h, 10 µM is 88.8%.

As to `CC(C)Nc1nccnc1Sc1nc[nH]n1` [CBK115205], the viability at 28.5 h, 10 µM was determined as 97.5%.

Consider `Cc1nnc(Sc2ncccc2C(F)(F)F)s1` [CBK115211], for which the viability at 28.5 h, 10 µM was 87.7%.

In the case of `FC(F)(F)c1cccnc1Sc1nc[nH]n1` [CBK115213], the viability at 28.5 h, 10 µM is 102%.

Regarding `Cc1nnc(Sc2cc(C(F)(F)F)ccn2)s1` [CBK115215], the viability at 28.5 h, 10 µM was determined as 87.6%.

Turning to `c1csc(Sc2nc3ccccc3nc2N2CCCC2)c1` [CBK115225], the viability at 28.5 h, 10 µM came out at 94.3%.

`Fc1ccc(Sc2ccc(C(F)(F)F)cn2)cc1` [CBK115235]: the viability at 28.5 h, 10 µM is 106%.

Take `FC(F)(F)c1ccc(Sc2cccs2)nc1` [CBK115236]: the viability at 28.5 h, 10 µM came to 92.5%.

For the compound `Cc1ccccc1Sc1ccc(C(F)(F)F)cn1` [CBK115237], the viability at 28.5 h, 10 µM worked out at 112%.

For `Nc1cccc(Sc2cccc(C(F)(F)F)n2)c1` [CBK115239], the viability at 28.5 h, 10 µM was 99.3%.

Consider `Fc1ccc(Sc2cccc(C(F)(F)F)n2)cc1` [CBK115240], for which the viability at 28.5 h, 10 µM stood at 97.5%.

As for `Cc1ccccc1Sc1cccc(C(F)(F)F)n1` [CBK115243], the viability at 28.5 h, 10 µM was 103%.

As to `FC(F)(F)c1ccnc(Sc2cccs2)n1` [CBK115245], the viability at 28.5 h, 10 µM was 87.7%.

Consider `COc1ccc(Sc2nccnc2NC(C)C)cc1OC` [CBK115249], for which the viability at 28.5 h, 10 µM was determined as 87.4%.

Turning to `COCc1nnc(Sc2nc3ccccc3nc2NC(C)C)s1` [CBK115253], the viability at 28.5 h, 10 µM amounted to 96.5%.

Consider `c1ccc2nc(N3CCCC3)c(Sc3nc[nH]n3)nc2c1` [CBK115265], for which the viability at 28.5 h, 10 µM was determined as 90.9%.

Take `CC(C)Nc1nccnc1OC1CCNC1` (stereo not shown) [CBK115279]: the viability at 28.5 h, 10 µM stood at 92.5%.
